From ChEMBL document CHEMBL3046607, “Synthesis and Herbicidal Activity of New 1-Alkyl-3-aryloxypyrazole-4-carboxamide Derivatives” (J Pestic Sci, 2004)
The source made the active and inactive calls. The rule behind the calls is not given here.

What was measured:
Elatine triandra [1] = assay: Post-emergence herbicidal activity against Elatine triandra assessed as bleaching of stem/leaf parts; format: functional, organism-based; also: test concentration or dose not given here
Ammannia multiflora [2] = assay: Post-emergence herbicidal activity against Ammannia multiflora assessed as bleaching of stem/leaf parts; format: functional, organism-based
Rotala indica [3] = assay: Post-emergence herbicidal activity against Rotala indica assessed as bleaching of stem/leaf parts; format: functional, organism-based
Lindernia procumbens [4] = assay: Post-emergence herbicidal activity against Lindernia procumbens assessed as bleaching of stem/leaf parts; format: functional, organism-based; also: test concentration or dose not given here
[5] = tested on: Schoenoplectiella juncoides; assay: Post-emergence herbicidal activity against Schoenoplectiella juncoides assessed as bleaching of stem/leaf parts; format: functional, organism-based; also: test concentration or dose not given here
Oryza sativa [6] = assay: Phytotoxicity against Oryza sativa cv. Koshihikari (rice) at 33 g a.i/ha measured after 14 days; format: organism-based; details: in vivo, 336 h
Ammannia multiflora [7] = assay: Pre-emergence herbicidal activity against Ammannia multiflora at 33 g a.i/ha measured after 14 days; format: functional, organism-based
Elatine triandra [8] = assay: Pre-emergence herbicidal activity against Elatine triandra at 33 g a.i/ha measured after 14 days; format: functional, organism-based
Rotala indica [9] = assay: Pre-emergence herbicidal activity against Rotala indica at 33 g a.i/ha measured after 14 days; format: functional, organism-based
Lindernia procumbens [10] = assay: Pre-emergence herbicidal activity against Lindernia procumbens at 33 g a.i/ha measured after 14 days; format: functional, organism-based
[11] = tested on: Schoenoplectiella juncoides; assay: Pre-emergence herbicidal activity against Schoenoplectiella juncoides at 33 g a.i/ha measured after 14 days; format: functional, organism-based
Pontederia vaginalis [12] = assay: Pre-emergence herbicidal activity against Monochoria vaginalis at 33 g a.i/ha measured after 14 days; format: functional, organism-based
Cyperus difformis [13] = assay: Pre-emergence herbicidal activity against Cyperus difformis at 33 g a.i/ha measured after 14 days; format: functional, organism-based
Echinochloa oryzicola [14] = assay: Pre-emergence herbicidal activity against Echinochloa oryzicola at 33 g a.i/ha measured after 14 days; format: functional, organism-based
Lindernia procumbens [15] = assay: Pre-emergence herbicidal activity against Lindernia procumbens assessed as bleaching of stem/leaf parts; format: functional, organism-based
Pontederia vaginalis [16] = assay: Pre-emergence herbicidal activity against Monochoria vaginalis assessed as bleaching of stem/leaf parts; format: functional, organism-based
[17] = tested on: Schoenoplectiella juncoides; assay: Pre-emergence herbicidal activity against Schoenoplectiella juncoides assessed as bleaching of stem/leaf parts; format: functional, organism-based
Cyperus difformis [18] = assay: Pre-emergence herbicidal activity against Cyperus difformis assessed as bleaching of stem/leaf parts; format: functional, organism-based
Echinochloa oryzicola [19] = assay: Pre-emergence herbicidal activity against Echinochloa oryzicola assessed as bleaching of stem/leaf parts; format: functional, organism-based
Oryza sativa [20] = assay: Phytotoxicity against Oryza sativa cv. Koshihikari (rice) at 10 g a.i/ha measured after 14 days; format: organism-based; details: in vivo, 336 h
Ammannia multiflora [21] = assay: Pre-emergence herbicidal activity against Ammannia multiflora at 10 g a.i/ha measured after 14 days; format: functional, organism-based
Rotala indica [22] = assay: Pre-emergence herbicidal activity against Rotala indica at 10 g a.i/ha measured after 14 days; format: functional, organism-based
Elatine triandra [23] = assay: Pre-emergence herbicidal activity against Elatine triandra at 10 g a.i/ha measured after 14 days; format: functional, organism-based
Lindernia procumbens [24] = assay: Pre-emergence herbicidal activity against Lindernia procumbens at 10 g a.i/ha measured after 14 days; format: functional, organism-based
[25] = tested on: Schoenoplectiella juncoides; assay: Pre-emergence herbicidal activity against Schoenoplectiella juncoides at 10 g a.i/ha measured after 14 days; format: functional, organism-based
Pontederia vaginalis [26] = assay: Pre-emergence herbicidal activity against Monochoria vaginalis at 1 0 g a.i/ha measured after 14 days; format: functional, organism-based
Cyperus difformis [27] = assay: Pre-emergence herbicidal activity against Cyperus difformis at 10 g a.i/ha measured after 14 days; format: functional, organism-based
Echinochloa oryzicola [28] = assay: Pre-emergence herbicidal activity against Echinochloa oryzicola at 10 g a.i/ha measured after 14 days; format: functional, organism-based
Cyperus difformis [29] = assay: Post-emergence herbicidal activity against Cyperus difformis assessed as bleaching of stem/leaf parts; format: functional, organism-based; also: test concentration or dose not given here
Pontederia vaginalis [30] = assay: Post-emergence herbicidal activity against Monochoria vaginalis assessed as bleaching of stem/leaf parts; format: functional, organism-based
Echinochloa oryzicola [31] = assay: Post-emergence herbicidal activity against Echinochloa oryzicola assessed as bleaching of stem/leaf parts; format: functional, organism-based
Ammannia multiflora [32] = assay: Pre-emergence herbicidal activity against Ammannia multiflora assessed as bleaching of stem/leaf parts; format: functional, organism-based
Elatine triandra [33] = assay: Pre-emergence herbicidal activity against Elatine triandra assessed as bleaching of stem/leaf parts; format: functional, organism-based
Rotala indica [34] = assay: Pre-emergence herbicidal activity against Rotala indica assessed as bleaching of stem/leaf parts; format: functional, organism-based

Compound: Cn1cc(C(=O)Nc2ccc(F)cc2F)c(Oc2cccc(C(F)(F)F)c2)n1
- Activity (Elatine triandra [1]): Active
- Activity (Ammannia multiflora [2]): Active
- Activity (Rotala indica [3]): Active
- Activity (Lindernia procumbens [4]): Active
- Activity [5]: Active
- Activity (Oryza sativa [6]): Non-toxic
- Activity (Ammannia multiflora [7]): Active
- Activity (Elatine triandra [8]): Active
- Activity (Rotala indica [9]): Active
- Activity (Lindernia procumbens [10]): Active
- Activity [11]: Active
- Activity (Pontederia vaginalis [12]): Active
- Activity (Cyperus difformis [13]): Active
- Activity (Echinochloa oryzicola [14]): Active
- Activity (Lindernia procumbens [15]): Active
- Activity (Pontederia vaginalis [16]): Active
- Activity [17]: Active
- Activity (Cyperus difformis [18]): Active
- Activity (Echinochloa oryzicola [19]): Active
- Activity (Oryza sativa [20]): Non-toxic
- Activity (Ammannia multiflora [21]): inactive
- Activity (Rotala indica [22]): inactive
- Activity (Elatine triandra [23]): inactive
- Activity (Lindernia procumbens [24]): inactive
- Activity [25]: inactive
- Activity (Pontederia vaginalis [26]): inactive
- Activity (Cyperus difformis [27]): inactive
- Activity (Echinochloa oryzicola [28]): inactive
- Activity (Cyperus difformis [29]): Active
- Activity (Pontederia vaginalis [30]): Active
- Activity (Echinochloa oryzicola [31]): Active
- Activity (Ammannia multiflora [32]): Active
- Activity (Elatine triandra [33]): Active
- Activity (Rotala indica [34]): Active
